Results published in article PMC10778824, “New Chalcone Derivatives Containing 2,4-Dichlorobenzenesulfonamide Moiety with Anticancer and Antioxidant Properties” (International Journal of Molecular Sciences, 2023).
≈ marks a conversion by molar mass, not a printed value. Where “and” joins values, the source holds several entries; their conditions need not be identical. Equal values may be shown once.

Legend:
[1] = test system: acute promyelocytic leukemia HL-60; experiment: MTT assay, HL-60 cells; type: cell-based, human
Protocol: The human gastric adenocarcinoma AGS, cervical cancer HeLa, and acute promyelocytic leukemia HL-60 cells were obtained from the American Type Culture Collection (ATCC, Manassas, VA, USA). Human neonatal fibroblasts were obtained from LGC Standards (Luckenwalde, Germany). The HeLa and AGS lines were cultured in Dulbecco’s modified Eagle’s medium (DMEM) and DMEM/F12 medium, respectively. The HL-60 line was maintained in RPMI-1640 medium. Fibroblasts were cultured in Fibroblast Growth Medium with Supplement Mix. All the media were supplemented with 100 units/mL of penicillin, 100 µg/mL of streptomycin, and 10% (v/v) fetal bovine serum (FBS) (Merck Millipore, Burlington, MA, USA). The cells were incubated at 37 °C and 5% CO2.
To estimate the cytotoxic effect of the five compounds (4–8), MTT (3-(4,5-dimethylthiazol-2-yl)-2,5-diphenyltetrazolium bromide) assay was used. Oxaliplatin was used as a positive control in this test. All the cell lines were seeded in 96-well plates at a density of 5 × 10^3 cells/well and treated for 24 h with the compounds at concentrations of 0.5–40 µg/mL. Oxaliplatin was tested in the range of 20–400 µg/mL (50–1000 µM). After treatment, the cells were incubated with MTT (0.5 mg/mL; Merck Millipore, Burlington, MA, USA) for 3 h. Then, DMSO was used to dissolve formazan crystals, and the absorbance of the formazan solution was measured with a plate reader (Epoch, BioTek Instruments, Santa Clara, CA, USA). All the results (±standard deviation (SD)) were obtained from six repetitions in at least two independent experiments. The data are expressed as IC50 values (µg/mL).

AGS cells = experiment: Cell cycle analysis (propidium iodide); type: cell-based, human; conditions: 48 h
Protocol: The AGS cells were seeded in a 6-well plate (5 × 10^5 cells/well) and incubated with compound 5 at concentrations of 1, 5, and 10 µg/mL for 48 h; oxaliplatin at the concentration of 40 µg/mL; and DMSO (0.2%, v/v). After treatment, the cells were stained with propidium iodide from the Muse Cell Cycle Assay Kit (Merck Millipore, Burlington, MA, USA), and the amount of cells in each phase of the cell cycle was determined using the Muse Cell Analyzer (Merck Millipore, Burlington, MA, USA). The experiment was independently repeated three times.

caspase-8 = experiment: Caspase-Glo 8 activity assay in AGS cells; type: cell-based, human; conditions: 24 h, relative to DMSO control
Protocol: (§1) The AGS cells were seeded in a 96-well plate (5 × 10^3 cells/well) and treated with compound 5 at concentrations of 1, 5, 7, and 10 µg/mL for 24 h; oxaliplatin at the concentration of 20 µg/mL; and DMSO (1%, v/v). The cells were then treated with reagents from Caspase-Glo 8 Assay or Caspase-Glo 9 Assay (Promega, Madison, WI, USA) and measured with the luminometer Glomax Multi + Detection System (Promega, Madison, WI, USA). The experiments were performed in two independent repeats in three repetitions.

caspase-9 = experiment: Caspase-Glo 9 activity assay in AGS cells; type: cell-based, human; conditions: 24 h, relative to DMSO control
Protocol: as §1

[2] = test system: Bacillus cereus PCM 1948,2019 (ATCC11778); experiment: MIC determination; type: cell-based; conditions: 37 °C, 48 h
Protocol: (§2) The MIC determinations for Staphylococcus epidermidis ATCC14990, Staphylococcus aureus ATCC6538, Enterococcus faecalis ATCC51299, Klebsiella pneumoniae ATCC13883, Escherichia coli ATCC8739, Salmonella enterica ATCC13076, Helicobacter pylori ATCC43504, Campylobacter jejuni ZMF, Campylobacter coli ZMF, Bacillus cereus PCM 1948,2019 (ATCC11778), and Listeria monocytogenes PCM2191 were performed based on the methodology described by Krauze-Baranowska et al.. The procedure for H. pylori was used in the experiments with Campylobacter strains, and the procedure for B. subtilis was used in the experiments with L. monocytogenes and B. cereus. The tested samples were dissolved in DMSO and diluted with water (concentration of approximately 500 μg/mL). The solutions were diluted geometrically by transferring the mixture/dilution (100 μL) from the first to the twelfth well of the microtiter plate. The final concentrations of samples used for antimicrobial effects ranged from 500 to 0.006 µg/mL. Ampicillin was used as a reference compound in the concentration range of 128 to 0.0625 µg/mL. The tests were incubated at 37 °C for 48 h. The diluent concentration had no effect on the activity of the tested compounds. All experiments were performed in triplicate.

Campylobacter coli ZMF = experiment: MIC determination; type: cell-based; conditions: 37 °C, 48 h
Protocol: as §2

Campylobacter jejuni ZMF = experiment: MIC determination; type: cell-based; conditions: 37 °C, 48 h
Protocol: as §2

[3] = test system: Enterococcus faecalis ATCC51299; experiment: MIC determination; type: cell-based; conditions: 37 °C, 48 h
Protocol: as §2

[4] = test system: Escherichia coli ATCC8739; experiment: MIC determination; type: cell-based; conditions: 37 °C, 48 h
Protocol: as §2

[5] = test system: Helicobacter pylori ATCC43504; experiment: MIC determination; type: cell-based; conditions: 37 °C, 48 h
Protocol: as §2

[6] = test system: Klebsiella pneumoniae ATCC13883; experiment: MIC determination; type: cell-based; conditions: 37 °C, 48 h
Protocol: as §2

[7] = test system: Listeria monocytogenes PCM2191; experiment: MIC determination; type: cell-based; conditions: 37 °C, 48 h
Protocol: as §2

[8] = test system: Salmonella enterica ATCC13076; experiment: MIC determination; type: cell-based; conditions: 37 °C, 48 h
Protocol: as §2

[9] = test system: Staphylococcus aureus ATCC6538; experiment: MIC determination; type: cell-based; conditions: 37 °C, 48 h
Protocol: as §2

[10] = test system: Staphylococcus epidermidis ATCC14990; experiment: MIC determination; type: cell-based; conditions: 37 °C, 48 h
Protocol: as §2

Cc1cc(S(=O)(=O)Nc2ccc(C(=O)/C=C/c3ccc(Br)cc3)cc2)c(Cl)cc1Cl [Compound 5, (E)-N-{4-[3-(4-Bromophenyl)acryloyl]phenyl}-2,4-Dichloro-5-Methylbenzenesulfonamide]
IC50 ([1]; Homo sapiens, HL-60, 24 h, MTT, 24 h treatment): < 1.57 µg/mL
IC50 HL-60 ([1]; MTT, 24 h treatment): 0.93 ± 0.09 µg/mL (≈ 1.77 µM)
selectivity index HL-60 ([1]; SI = IC50 noncancer cells/IC50 cancer cells, in relation to human neonatal fibroblasts): 27.52
cells in G0/G1 phase (AGS cells; 1 µg/mL): 41.4%
cells in G2/M phase (AGS cells; 1 µg/mL): 43.0%
cells in S phase (AGS cells; 1 µg/mL): 14.6%
cells in G1 (G0/G1) phase (AGS cells; 10 µg/mL): 34.9% and 34.47% ± 2.87%
cells in G2/M phase (AGS cells; 10 µg/mL): 23.1% and 21.50% ± 1.50%
cells in S phase (AGS cells; 10 µg/mL): 15.5% and 13.78% ± 1.70%
cells in subG0 phase (AGS cells; 10 µg/mL): 27.1% ± 0.87%
caspase-8 relative activity (caspase-8; 1 µg/mL): 1.16 ± 0.15
caspase-8 relative activity (caspase-8; 5 µg/mL): 3.53 ± 0.33
caspase-8 relative activity (caspase-8; 7 µg/mL): 3.39 ± 0.28
caspase-8 relative activity (caspase-8; 10 µg/mL): 2.99 ± 0.20
caspase-9 relative activity (caspase-9; 1 µg/mL): 0.85 ± 0.03
caspase-9 relative activity (caspase-9; 5 µg/mL): 4.54 ± 0.20
caspase-9 relative activity (caspase-9; 7 µg/mL): 4.50 ± 0.14
caspase-9 relative activity (caspase-9; 10 µg/mL): 3.81 ± 0.32
MIC [2]: > 500 µg/mL
MIC (Campylobacter coli ZMF): > 500 µg/mL
MIC (Campylobacter jejuni ZMF): > 500 µg/mL
MIC [3]: > 500 µg/mL
MIC [4]: > 500 µg/mL
MIC [5]: > 500 µg/mL
MIC [6]: > 500 µg/mL
MIC [7]: > 500 µg/mL
MIC [8]: > 500 µg/mL
MIC [9]: > 500 µg/mL
MIC [10]: > 500 µg/mL
